Among the data in patent US20030095958A1, “Inhibitors of bace” (priority 2001, published 2003) are Ki values, retold here.

The assay concerns the target BACE (Homo sapiens, UniProt P56817). Nature of the assay: Ki Determination for the Inhibition of BACE (FS-1 peptide fluorescence cleavage assay). In kind it is biochemical. The settings on record: apparent Ki; 50 nM BACE, 10 μM FS-1 substrate, 0.1M sodium acetate pH 4.5. As to the method:
Compounds were tested against BACE activity using the following modifications of the method described in J. Ermolieff et al. (2000) Biochemistry 39(51):16263.
All compound evaluations were performed in 0.1M sodium acetate (buffer), pH, 4.5, 10 μM substrate (FS-1 peptide as described in the reference above; this is commercially available), varying concentrations of the test compound or control (DMSO to yeild 2% vol/vol), and 50 nM BACE. The assay volume is 100 μL.
Two microliters of the test compound dissolved in DMSO are added to each well in a 96-well microtiter plate. Seventy eight microliters of BACE are mixed with buffer and added to each well then incubated at room temperature for 15 minutes. A stock solution of 50 μM FS-1 substrate was prepared by addition of an aliquot of FS-1 substrate which was dissolved in DMSO to the buffer and mixed well. The reaction is initiated by addition of 20 μL of the FS-1 mix to the remaining, preincubated assay components. The cleavage reaction of substrate to product is measured using a Molecular Devices fluorescence plate reader with the excitation and emission filter pairs of 355 nm and 495 nm, respectively. Apparent Ki values are determined by fitting the data to the integrated equation for competitive tight binding inhibition.

Sequence of BACE (P56817 46-501): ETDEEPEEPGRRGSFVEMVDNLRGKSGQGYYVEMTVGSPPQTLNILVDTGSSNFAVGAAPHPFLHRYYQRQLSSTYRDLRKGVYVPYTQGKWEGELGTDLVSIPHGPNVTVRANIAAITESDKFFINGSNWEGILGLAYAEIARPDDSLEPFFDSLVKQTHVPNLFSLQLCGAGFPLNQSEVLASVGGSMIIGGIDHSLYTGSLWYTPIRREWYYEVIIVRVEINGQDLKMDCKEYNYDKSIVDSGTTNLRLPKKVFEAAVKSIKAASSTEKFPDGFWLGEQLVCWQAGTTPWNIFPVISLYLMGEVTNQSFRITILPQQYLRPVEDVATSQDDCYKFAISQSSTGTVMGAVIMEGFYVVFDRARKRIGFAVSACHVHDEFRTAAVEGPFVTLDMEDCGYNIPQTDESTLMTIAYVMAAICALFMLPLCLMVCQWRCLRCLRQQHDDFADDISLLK

`O=C(Nc1cc(-c2ccc(S(=O)(=O)NCc3ccccc3)c(F)c2)ccc1N1CCNCC1)c1cccc2ccccc12` [Compound 163, Naphthalene-1-carboxylic acid (4′-benzylsulfamoyl-3′-fluoro-4-piperazin-1-yl-biphenyl-3-yl)-amide]: the Ki was below 3 µM.

For `O=C(Nc1cc(-c2cc(F)c(S(=O)(=O)NCc3ccccc3)cc2F)ccc1N1CCNCC1)c1cccc2ccccc12` [Compound 164, Naphthalene-1-carboxylic acid (4′-benzylsulfamoyl-2′,5′-difluoro-4-piperazin-1-yl-biphenyl-3-yl)-amide], the Ki fell in the range of 3 to 30 µM. As for `c1ccc(-c2ccc(N3CCNCC3)c(NCc3ccc4ccccc4c3)c2)cc1` [Compound 165, Naphthalen-2-ylmethyl-(4-piperazin-1-yl-biphenyl-3-yl)-amine], the figure is below 3 µM. Regarding `FC(F)(F)c1ccc(-c2ccc(N3CCNCC3)c(NCc3ccc4ccccc4c3)c2)cc1` [Compound 166, Naphthalen-2-ylmethyl-(4-piperazin-1-yl-4′-trifluoromethyl-biphenyl-3-yl)-amine], the Ki is below 3 µM. The value for `O=C(Nc1cc(C(F)(F)F)c(Cl)cc1N1CCNCC1)c1cccc2ccccc12` [Compound 167, Naphthalene-1-carboxylic acid (4-chloro-2-piperazin-1-yl-5-trifluoromethyl-phenyl)-amide] was above 30 µM. The value for `O=C(Nc1cc(C(F)(F)F)c(-c2ccc(Cl)c(Cl)c2)cc1N1CCNCC1)c1cccc2ccccc12` [Compound 168, Naphthalene-1-carboxylic acid (3′,4′-dichloro-5-piperazin-1-yl-2-trifluoromethyl-biphenyl-4-yl)-amide] was below 3 µM; that for `O=C(Nc1cc(C(F)(F)F)c(-c2cc(Cl)ccc2Cl)cc1N1CCNCC1)c1cccc2ccccc12` [Compound 169, Naphthalene-1-carboxylic acid (2′,5′-dichloro-5-piperazin-1-yl-2-trifluoromethyl-biphenyl-4-yl)-amide] was below 3 µM; that for `O=C(Nc1cc(C(F)(F)F)c(-c2ccc(C(F)(F)F)cc2)cc1N1CCNCC1)c1cccc2ccccc12` [Compound 170, Naphthalene-1-carboxylic acid (5-piperazin-1-yl-2,4′-bis-trifluoromethyl-biphenyl-4-yl)-amide] was below 3 µM.

As for `O=S(=O)(Nc1cc(C(F)(F)F)ccc1N1CCNCC1)c1ccc(-c2ccc(C(F)(F)F)cc2)cc1` [Compound 171, 4′-Trifluoromethyl-biphenyl-4-sulfonic acid (2-piperazin-1-yl-5-trifluoromethyl-phenyl)-amide], the Ki was below 3 µM. Regarding `O=S(=O)(Nc1cc(C(F)(F)F)ccc1N1CCNCC1)c1ccc(-c2ccccc2C(F)(F)F)cc1` [Compound 172, 2′-Trifluoromethyl-biphenyl-4-sulfonic acid (2-piperazin-1-yl-5-trifluoromethyl-phenyl)-amide], the Ki is below 3 µM. As for `O=C(Nc1ccc(-c2ccc(Cl)c(Cl)c2)cc1N1CCNCC1)c1cccc2ccccc12` [Compound 173, Naphthalene-1-carboxylic acid (3′,4′-dichloro-3-piperazin-1-yl-biphenyl-4-yl)-amide], the figure is below 3 µM; as for `O=C(Nc1ccc(-c2ccc(C(F)(F)F)cc2)cc1N1CCNCC1)c1cccc2ccccc12` [Compound 174, Naphthalene-1-carboxylic acid (3-piperazin-1-yl-4′-trifluoromethyl-biphenyl-4-yl)-amide], below 3 µM. As for `O=C(Nc1cc(F)c(-c2ccc(Cl)c(Cl)c2)cc1N1CCNCC1)c1cccc2ccccc12` [Compound 175, Naphthalene-1-carboxylic acid (3′,4′-dichloro-2-fluoro-5-piperazin-1-yl-biphenyl-4-yl)-amide], the figure is below 3 µM. As for `O=C(Nc1cc(Br)cc(COc2ccccc2C(F)(F)F)c1N1CCNCC1)c1nccc2ccccc12` [Compound 176, Isoquinoline-1-carboxylic acid [5-bromo-2-piperazin-1-yl-3-(2-trifluoromethyl-phenoxymethyl)-phenyl]-amide], the figure is below 3 µM; as for `O=C(Nc1cc(-c2ccccc2)cc(COc2ccccc2C(F)(F)F)c1N1CCNCC1)c1nccc2ccccc12` [Compound 177, Isoquinoline-1-carboxylic acid [4-piperazin-1-yl-5-(2-trifluoromethyl-phenoxymethyl)-biphenyl-3-yl]-amide], below 3 µM. Turning to `O=C(Nc1ccc(COc2ccccc2C(F)(F)F)cc1N1CCNCC1)c1nccc2ccccc12` [Compound 178, Isoquinoline-1-carboxylic acid [2-piperazin-1-yl-4-(2-trifluoromethyl-phenoxymethyl)-phenyl]-amide], the Ki is below 3 µM. `O=S(=O)(Nc1cc(-c2ccc(Cl)c(Cl)c2)ccc1N1CCNCC1)c1ccc(-c2ccc(C(F)(F)F)cc2)cc1` [Compound 179, 4′-Trifluoromethyl-biphenyl-4-sulfonic acid (3′,4′-dichloro-4-piperazin-1-yl-biphenyl-3-yl)-amide]: the Ki was in the range of 3 to 30 µM.

Regarding `O=S(=O)(Nc1cc(-c2ccc(Cl)c(Cl)c2)ccc1N1CCNCC1)c1ccc(-c2cccc(Cl)c2)cc1` [Compound 180, 3′-Chloro-biphenyl-4-sulfonic acid (3′,4′-dichloro-4-piperazin-1-yl-biphenyl-3-yl)-amide], the Ki fell in the range of 3 to 30 µM.

In the case of `O=S(=O)(Nc1cc(-c2ccc(Cl)c(Cl)c2)ccc1N1CCNCC1)c1ccc(-c2ccc(Cl)cc2)cc1` [Compound 181, 4′-Chloro-biphenyl-4-sulfonic acid (3′,4′-dichloro-4-piperazin-1-yl-biphenyl-3-yl)-amide], the Ki fell in the range of 3 to 30 µM. As for `O=C(Nc1cc(Br)c(COc2ccccc2C(F)(F)F)cc1N1CCNCC1)c1nccc2ccccc12` [Compound 183, Isoquinoline-1-carboxylic acid [5-bromo-2-piperazin-1-yl-4-(2-trifluoromethyl-phenoxymethyl)-phenyl]-amide], the figure is below 3 µM. As for `O=C(Nc1cc(-c2ccccc2)c(COc2ccccc2C(F)(F)F)cc1N1CCNCC1)c1nccc2ccccc12` [Compound 184, Isoquinoline-1-carboxylic acid [4-piperazin-1-yl-6-(2-trifluoromethyl-phenoxymethyl)-biphenyl-3-yl]-amide], the figure is below 3 µM; as for `O=C(Nc1cc(-c2ccc(C(F)(F)F)cc2)c(COc2ccccc2C(F)(F)F)cc1N1CCNCC1)c1nccc2ccccc12` [Compound 185, Isoquinoline-1-carboxylic acid [4-piperazin-1-yl-4′-trifluoromethyl-6-(2-trifluoromethyl-phenoxymethyl)-biphenyl-3-yl]-amide], 3 to 30 µM.

`O=C(Nc1cc(-c2ccc(O)cc2)c(COc2ccccc2C(F)(F)F)cc1N1CCNCC1)c1nccc2ccccc12` [Compound 186, Isoquinoline-1-carboxylic acid [4′-hydroxy-4-piperazin-1-yl-6-(2-trifluoromethyl-phenoxymethyl)-biphenyl-3-yl]-amide]: the Ki was below 3 µM. On to `O=C(Nc1cc(-c2ccoc2)c(COc2ccccc2C(F)(F)F)cc1N1CCNCC1)c1nccc2ccccc12` [Compound 187, Isoquinoline-1-carboxylic acid [5-furan-3-yl-2-piperazin-1-yl-4-(2-trifluoromethyl-phenoxymethyl)-phenyl]-amide], for which the Ki was below 3 µM.

For `CCOC(=O)c1cc(Br)cc(NCc2ccc3ccccc3n2)c1N1CCNCC1` [Compound 188, 5-Bromo-2-piperazin-1-yl-3-[(quinolin-2-ylmethyl)-amino]-benzoic acid ethyl ester], the Ki was 3 to 30 µM.

As to `O=C(Nc1cc(C(F)(F)F)ccc1N1CCNCC1)c1cnc2ccccc2n1` [Compound 189, Quinoxaline-2-carboxylic acid (2-piperazin-1-yl-5-trifluoromethyl-phenyl)-amide], the Ki fell in the range of 3 to 30 µM. As for `O=C(Nc1cc(C(F)(F)F)ccc1N1CCNCC1)c1ccc2cnccc2n1` [Compound 190, [1,6]Naphthyridine-2-carboxylic acid (2-piperazin-1-yl-5-trifluoromethyl-phenyl)-amide], the Ki was 3 to 30 µM. As for `O=C(O)C1CN(c2ccc(-c3ccc(C(F)(F)F)cc3)cc2NCc2ccc3ccccc3c2)CCN1` (stereo not shown) [Compound 191, 4-{3-[(Naphthalen-2-ylmethyl)-amino]-4′-trifluoromethyl-biphenyl-4-yl}-piperazine-2-carboxylic acid], the figure is 3 to 30 µM; as for `COC(=O)C1CN(c2ccc(-c3ccc(C(F)(F)F)cc3)cc2NCc2ccc3ccccc3c2)CCN1` (stereo not shown) [Compound 192, 4-{3-[(Naphthalen-2-ylmethyl)-amino]-4′-trifluoromethyl-biphenyl-4-yl}-piperazine-2-carboxylic acid methyl ester], below 3 µM; as for `CC(C)NC(=O)C1CN(c2ccc(-c3ccc(C(F)(F)F)cc3)cc2NCc2ccc3ccccc3c2)CCN1` (stereo not shown) [Compound 193, 4-{3-[(Naphthalen-2-ylmethyl)-amino]-4′-trifluoromethyl-biphenyl-4-yl}-piperazine-2-carboxylic acid isopropylamide], below 3 µM.

On to `O=C(NCc1ccccc1)C1CN(c2ccc(-c3ccc(C(F)(F)F)cc3)cc2NCc2ccc3ccccc3c2)CCN1` (stereo not shown) [Compound 194, 4-{3-[(Naphthalen-2-ylmethyl)-amino]-4′-trifluoromethyl-biphenyl-4-yl}-piperazine-2-carboxylic acid benzylamide], for which the Ki was below 3 µM.
